Laboratory results: ChEMBL document CHEMBL3400083, “Effect of the tyrosinase inhibitor (S)-N-trans-feruloyloctopamine from garlic skin on tyrosinase gene expression and melanine accumulation in melanoma cells” (Bioorg Med Chem Lett, 2015)
Blank lines part the entries; values can stand above or below the compound they belong to. The source made the active and inactive calls. No cut-off for these calls is given here.

Tests used:
[1] = Cytotoxicity against mouse B16F10 cells assessed as cell viability at 24 uM after 72 hrs by MTT assay (reference value: 99.6 +/- 3.5%); format: cell-based, B16-F10; conditions: read-out: Activity
[2] = Cytotoxicity against mouse B16F10 cells assessed as cell viability at 3 uM after 72 hrs by MTT assay (reference value: 99.6 +/- 3.5%); format: cell-based, B16-F10; conditions: read-out: Activity
[3] = Inhibition of tyrosinase protein expression in alpha-MSH-stimulated mouse B16F10 cells at 48 to 96 uM incubated for 1 hr prior to alpha-MSH challenge measured after 24 hrs by Western blotting analysis; format: functional, cell-based; conditions: B16-F10
[4] = target: T1, Tyrosinase (Mus musculus) (UniProt P11344); assay: Inhibition of tyrosinase in mouse B16F10 cells assessed as reduction in alpha-MSH-induced melanin content at 96 uM (reference value: 98.5 +/- 4.7%); format: cell-based; conditions: B16-F10
T1 sequence (whole entry): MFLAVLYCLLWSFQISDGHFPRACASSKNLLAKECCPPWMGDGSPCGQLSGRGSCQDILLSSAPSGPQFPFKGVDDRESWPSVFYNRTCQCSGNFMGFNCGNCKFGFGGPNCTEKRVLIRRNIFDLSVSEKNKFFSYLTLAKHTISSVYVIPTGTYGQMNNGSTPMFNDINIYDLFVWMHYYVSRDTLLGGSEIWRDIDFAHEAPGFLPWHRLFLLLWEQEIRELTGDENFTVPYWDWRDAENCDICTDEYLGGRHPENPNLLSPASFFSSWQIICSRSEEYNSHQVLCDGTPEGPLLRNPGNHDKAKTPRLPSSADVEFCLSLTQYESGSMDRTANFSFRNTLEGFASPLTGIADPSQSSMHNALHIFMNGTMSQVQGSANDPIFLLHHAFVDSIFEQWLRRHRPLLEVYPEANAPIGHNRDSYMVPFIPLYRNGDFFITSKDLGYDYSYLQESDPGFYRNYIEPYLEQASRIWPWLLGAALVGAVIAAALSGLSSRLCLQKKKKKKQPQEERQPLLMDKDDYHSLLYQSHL

[5] = target: T1, Tyrosinase (Mus musculus); assay: (§1) Inhibition of tyrosinase in mouse B16F10 cells assessed as reduction in alpha-MSH-induced melanin content; format: cell-based; conditions: B16-F10
Tyrosinase [6] = target: T2, Tyrosinase (Mus musculus, UniProt P11344); assay: as §1; format: cell-based, B16-F10
T2 sequence (P11344 whole entry): T1 sequence (whole entry)

[7] = Cytotoxicity against mouse B16F10 cells assessed as cell viability at 12 uM after 72 hrs by MTT assay (reference value: 99.6 +/- 3.5%); format: cell-based, B16-F10; conditions: read-out: Activity
[8] = Cytotoxicity against mouse B16F10 cells assessed as cell viability at 1.5 uM after 72 hrs by MTT assay (reference value: 99.6 +/- 3.5%); format: cell-based, B16-F10; conditions: read-out: Activity
[9] = target: T1, Tyrosinase (Mus musculus); assay: Inhibition of tyrosinase in mouse B16F10 cells assessed as reduction in alpha-MSH-induced melanin content at 48 uM (reference value: 98.5 +/- 4.7%); format: cell-based; conditions: B16-F10
B16-F10 = assay: Inhibition of tyrosinase mRNA expression in alpha-MSH-stimulated mouse B16F10 cells at 48 to 96 uM incubated for 1 hr prior to alpha-MSH challenge measured after 24 hrs by RT-PCR analysis; format: functional, cell-based
[10] = Cytotoxicity against mouse B16F10 cells assessed as cell viability at 6 uM after 72 hrs by MTT assay (reference value: 99.6 +/- 3.5%); format: cell-based, B16-F10; conditions: read-out: Activity
[11] = Cytotoxicity against mouse B16F10 cells assessed as cell viability at 48 uM after 72 hrs by MTT assay (reference value: 99.6 +/- 3.5%); format: cell-based, B16-F10; conditions: read-out: Activity
[12] = Cytotoxicity against mouse B16F10 cells assessed as cell viability at 96 uM after 72 hrs by MTT assay (reference value: 99.6 +/- 3.5%); format: cell-based, B16-F10; conditions: read-out: Activity
Tyrosinase [13] = target: T3, Tyrosinase (Homo sapiens, UniProt P14679); assay: Inhibition of tyrosinase (unknown origin)
T3 sequence (P14679 whole entry): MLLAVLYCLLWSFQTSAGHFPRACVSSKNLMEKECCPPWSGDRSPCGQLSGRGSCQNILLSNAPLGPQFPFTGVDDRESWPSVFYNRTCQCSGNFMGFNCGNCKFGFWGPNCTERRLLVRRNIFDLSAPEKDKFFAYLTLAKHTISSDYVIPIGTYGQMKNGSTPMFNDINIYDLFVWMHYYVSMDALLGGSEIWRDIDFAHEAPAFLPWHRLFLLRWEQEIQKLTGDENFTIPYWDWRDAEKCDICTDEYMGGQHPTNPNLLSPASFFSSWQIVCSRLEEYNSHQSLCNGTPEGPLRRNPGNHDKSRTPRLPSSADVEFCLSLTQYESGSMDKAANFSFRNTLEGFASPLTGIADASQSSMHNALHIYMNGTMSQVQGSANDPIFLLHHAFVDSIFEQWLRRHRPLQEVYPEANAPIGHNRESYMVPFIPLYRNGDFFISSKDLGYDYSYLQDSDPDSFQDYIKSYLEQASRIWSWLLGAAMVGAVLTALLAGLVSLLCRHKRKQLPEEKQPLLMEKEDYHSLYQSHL

[14] = target: T1, Tyrosinase (Mus musculus); conditions: B16-F10, 100 uM
Description: Inhibition of tyrosinase in mouse B16F10 cells assessed as reduction in alpha-MSH-induced melanin content at 100 uM

- inhibition [4]: 106%
- inhibition [5]: Dose-dependent effect
- IC50 (Tyrosinase [6]): > 96 µM
- inhibition [9]: 122%
Compound: COc1cc(/C=C/C(=O)NC[C@@H](O)c2ccc(O)cc2)ccc1O
- viability at 72 h, 24 µM [1]: 98.3%
- viability at 72 h, 3 µM [2]: 105%
- inhibition [3]: Active
- viability at 72 h, 12 µM [7]: 99.4%
- viability at 72 h, 1.5 µM [8]: 102%
- inhibition (B16-F10): Active
- viability at 72 h, 6 µM [10]: 97.8%
- viability at 72 h, 48 µM [11]: 97.2%
- viability at 72 h, 96 µM [12]: 96%

- IC50 (Tyrosinase [13]): 54.2 µM
Compound: CC(C)(C)c1cc(O)ccc1O [E319]

- inhibition [14]: 146%
Compound: OC[C@H]1O[C@@H](Oc2ccc(O)cc2)[C@H](O)[C@@H](O)[C@@H]1O
